# Data taken from patent US20200062773A1, “4,4a,5,7-TETRAHYDRO-3H-FURO[3,4-b]PYRIDINYL COMPOUNDS” (Janssen Pharmaceutlca NV, priority 2016, published 2020).
# How the values were obtained:
# [1] = tested on: Abeta 1-42 produced and secreted into the medium of human neuroblastoma SKNBE2 cells; experiment: Cellular αLisa assay in SKNBE2 cells; format: cell-based; conditions: human neuroblastoma SKNBE2 cells expressing hAPP695, 18 hours incubation; for IC50: Homo sapiens, SKNBE2, 18 h, read-out: Cellular αLisa assay in SKNBE2 cells Abeta 42 pIC50 (converted)
# Description: Cellular αLisa Assay in SKNBE2 Cells
# In two αLisa assays the levels of Abeta 1-42 produced and secreted into the medium of human neuroblastoma SKNBE2 cells are quantified. The assay is based on the human neuroblastoma SKNBE2 expressing the wild type Amyloid Precursor Protein (hAPP695). The compounds are diluted and added to these cells, incubated for 18 hours and then measurements of Abeta 1-42 are taken. Abeta 1-42 are measured by sandwich αLisa. αLisa is a sandwich assay using biotinylated antibody AbN/25 attached to streptavidin coated beads and antibody cAb42/26 conjugated acceptor beads for the detection of Abeta 1-42 respectively. In the presence of Abeta 1-42, the beads come into close proximity. The excitation of the donor beads provokes the release of singlet oxygen molecules that trigger a cascade of energy transfer in the acceptor beads, resulting in light emission. Light emission is measured after 1 hour incubation (excitation at […] and emission at 615 nm).
# (§1) A best-fit curve is fitted by a minimum sum of squares method to the plot of % Controlmin versus compound concentration. From this an IC50 value (inhibitory concentration causing 50% inhibition of activity) can be obtained.
# BACE1 = molecular target: T1, BACE1 (Homo sapiens, UniProt P56817); experiment: BACE1 biochemical FRET based assay; conditions: Method 1: recombinant BACE1 1 μg/ml, 120 min at room temperature, pH 5.0; for IC50: read-out: Biochemical FRET based assay pIC50 (converted)
# T1 construct: recombinant BACE1 protein in a final concentration of 1 μg/ml
# Source text: BACE1 Biochemical Fret Based Assay
# (§2) This assay is a Fluorescence Resonance Energy Transfer Assay (FRET) based assay. The substrate for this assay is an APP derived 13 amino acids peptide that contains the ‘Swedish’ Lys-Met/Asn-Leu mutation of the amyloid precursor protein (APP) beta-site APP-cleaving enzyme cleavage site. This substrate also contains two fluorophores: (7-methoxycoumarin-4-yl) acetic acid (Mca) is a fluorescent donor with excitation wavelength at 320 nm and emission at 405 nm and 2,4-Dinitrophenyl (Dnp) is a proprietary quencher acceptor. […] Upon cleavage by BACE1, the fluorophore Mca is separated from the quenching group Dnp, restoring the full fluorescence yield of the donor. The increase in fluorescence is linearly related to the rate of proteolysis.
# Briefly in a 384-well format recombinant BACE1 protein in a final concentration of 1 μg/ml is incubated for 120 minutes at room temperature with 10 μm substrate in incubation buffer (40 mM Citrate buffer pH 5.0, 0.04% PEG, 4% DMSO) in the absence or presence of compound. Next the amount of proteolysis is directly measured by fluorescence measurement at T=0 and T=120 (excitation at 320 nm and emission at 405 nm). Results are expressed in RFU (Relative Fluorescence Units), as difference between T120 and T0.
# as §1
# BACE2 = molecular target: T2, BACE2 (Homo sapiens, UniProt Q9Y5Z0); experiment: BACE2 biochemical FRET based assay; conditions: recombinant BACE2, 450 minutes at room temperature, pH 5.0; for IC50: read-out: Biochemical FRET based assay pIC50 (converted)
# T2 construct: recombinant BACE2 protein in a final concentration of 0.4 μg/ml
# T2 sequence (Q9Y5Z0 63-518): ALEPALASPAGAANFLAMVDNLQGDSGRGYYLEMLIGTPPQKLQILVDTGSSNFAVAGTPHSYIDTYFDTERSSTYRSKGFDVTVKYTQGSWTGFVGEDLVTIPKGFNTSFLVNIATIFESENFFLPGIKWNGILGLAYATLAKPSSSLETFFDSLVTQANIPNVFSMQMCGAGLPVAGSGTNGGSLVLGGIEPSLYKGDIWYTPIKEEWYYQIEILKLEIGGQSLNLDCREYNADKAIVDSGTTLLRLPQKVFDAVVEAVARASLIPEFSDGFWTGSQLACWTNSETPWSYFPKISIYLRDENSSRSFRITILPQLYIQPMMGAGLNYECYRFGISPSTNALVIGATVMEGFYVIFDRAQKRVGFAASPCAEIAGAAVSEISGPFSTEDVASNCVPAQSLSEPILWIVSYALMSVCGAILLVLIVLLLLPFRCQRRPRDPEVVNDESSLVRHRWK
# Source text: BACE2 Biochemical FRET Based Assay
# as §2, with “assay” for “assay is an APP derived 13 amino acids peptide that”, “the beta-site APP-cleaving enzyme,” for “BACE1,”
# Briefly in a 384-well format recombinant BACE2 protein in a final concentration of 0.4 μg/ml is incubated for 450 minutes at room temperature with 10 μM substrate in incubation buffer (50 mM Citrate buffer pH 5.0, 0.05% PEG, no DMSO) in the absence or presence of compound. Next the amount of proteolysis is directly measured by fluorescence measurement at T=0 and T=450 (excitation at 320 nm and emission at 405 nm). Results are expressed in RFU (Relative Fluorescence Units), as difference between T450 and T0.
# as §1
# T1 sequence (P56817 46-501): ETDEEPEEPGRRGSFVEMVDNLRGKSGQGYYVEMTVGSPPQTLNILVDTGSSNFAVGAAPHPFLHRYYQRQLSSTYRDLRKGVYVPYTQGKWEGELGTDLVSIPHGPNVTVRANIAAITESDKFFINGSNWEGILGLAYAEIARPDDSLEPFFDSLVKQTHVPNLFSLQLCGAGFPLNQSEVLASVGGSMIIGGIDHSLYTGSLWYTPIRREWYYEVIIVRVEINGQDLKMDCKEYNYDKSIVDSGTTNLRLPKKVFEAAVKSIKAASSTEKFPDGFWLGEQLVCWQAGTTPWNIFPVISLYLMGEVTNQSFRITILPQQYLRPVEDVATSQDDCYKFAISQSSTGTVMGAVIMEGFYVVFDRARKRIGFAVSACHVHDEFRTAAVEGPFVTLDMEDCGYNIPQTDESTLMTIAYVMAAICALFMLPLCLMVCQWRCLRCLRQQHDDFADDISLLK
Structure (SMILES),Cellular αLisa assay in SKNBE2 cells Abeta 42 pIC50 [1],Biochemical FRET based assay pIC50 (BACE1),Biochemical FRET based assay pIC50 (BACE2),IC50 (BACE1) [nM],IC50 (BACE2) [nM],IC50 [1] [nM]
"C[C@H]1OC[C@]2(c3cc(NC(=O)c4cnc(OCF)cn4)ccc3F)N=C(N)[C@](C)(C#N)C[C@H]12 (single isomer, unassigned) [9b]",8.74,8.28,7.19,–,–,–
"C[C@@H]1OC[C@@]2(c3cc(NC(=O)c4cnc(OCF)cn4)ccc3F)N=C(N)[C@@](C)(C#N)C[C@@H]12 (single isomer, unassigned) [9c]",5.8,5.76,<5,–,–,–
"C[C@H]1OC[C@]2(c3cc(NC(=O)c4ccc(F)cn4)ccc3F)N=C(N)[C@](C)(C#N)C[C@H]12 (single isomer, unassigned) [10b]",8.23,8.25,8.28,–,–,–
"C[C@@H]1OC[C@@]2(c3cc(NC(=O)c4ccc(F)cn4)ccc3F)N=C(N)[C@@](C)(C#N)C[C@@H]12 (single isomer, unassigned) [10c]",5.29,5.01,<5,–,–,–
"COc1cnc(C(=O)Nc2ccc(F)c([C@]34CO[C@H](C)[C@H]3C[C@@](C)(S(C)(=O)=O)C(N)=N4)c2)cn1 (single isomer, unassigned) [13a]",7.19,7,5.9,–,–,–
"COc1cnc(C(=O)Nc2ccc(F)c([C@@]34CO[C@@H](C)[C@@H]3C[C@@](C)(S(C)(=O)=O)C(N)=N4)c2)cn1 (single isomer, unassigned) [13b]",5.75,5.48,<5,–,–,–
"COc1cnc(C(=O)Nc2ccc(F)c([C@@]34CO[C@@H](C)[C@@H]3C[C@](C)(S(C)(=O)=O)C(N)=N4)c2)cn1 (single isomer, unassigned) [13c]",6.21,6.05,5.41,–,–,–
"COc1cnc(C(=O)Nc2ccc(F)c([C@]34CO[C@H](C)[C@H]3C[C@](C)(S(C)(=O)=O)C(N)=N4)c2)cn1 (single isomer, unassigned) [13d]",<5.05,<5,<5,–,–,–
"CC1OCC2(c3cc(NC(=O)c4cnc(-n5cncn5)cn4)ccc3F)N=C(N)C(C)(C#N)CC12 (single isomer, unassigned) [15a]",8.19,–,–,7.41,158,–
"CC1OCC2(c3cc(NC(=O)c4cnc(-n5cncn5)cn4)ccc3F)N=C(N)C(C)(C#N)CC12 (single isomer, unassigned) [15b]",5.62,–,–,1550,> 10000,–
"CC1(C#N)CC2C(C(F)F)OCC2(c2cc(NC(=O)c3cnc(OCF)cn3)ccc2F)N=C1N (single isomer, unassigned) [25a]",7.74,–,–,8.91,141,–
"CC1(C#N)CC2C(C(F)F)OCC2(c2cc(NC(=O)c3cnc(OCF)cn3)ccc2F)N=C1N (single isomer, unassigned) [25b]",7.13,–,–,52.5,891,–
"CC1OCC2(c3cc(NC(=O)c4cnc(OCF)cn4)cc(F)c3F)N=C(N)C(C)(C#N)CC12 (single isomer, unassigned) [31a]",7.15,–,–,66.1,2400,–
"CC1OCC2(c3cc(NC(=O)c4cnc(OCF)cn4)cc(F)c3F)N=C(N)C(C)(C#N)CC12 (single isomer, unassigned) [31b]",<5.05,–,–,8710,> 10000,–
"CC1OCC2(c3cc(NC(=O)c4cnc(OCF)cn4)cc(F)c3F)N=C(N)C(C)(C#N)CC12 (single isomer, unassigned) [31c]",7.57,–,–,15.5,158,–
"CC1OCC2(c3cc(NC(=O)c4cnc(OCF)cn4)cc(F)c3F)N=C(N)C(C)(C#N)CC12 (single isomer, unassigned) [31d]",<5.05,–,–,> 10000,> 10000,–
"CC1OCC2(c3cc(NC(=O)c4cnc(-n5cncn5)cn4)cc(F)c3F)N=C(N)C(C)(C#N)CC12 (single isomer, unassigned) [32a]",7.51,–,–,19.1,347,–
N#Cc1ccc(C(=O)Nc2ccc(F)c([C@@]34CO[C@@H](C(F)(F)F)[C@@H]3CCC(N)=N4)c2)nc1 [11b],5.9,–,–,–,–,–
Cl.NC1=N[C@]2(c3cc(NC(=O)c4ccc(F)cn4)ccc3F)CO[C@@H](C(F)(F)F)[C@@H]2CC1 [12b],5.45,5.27,–,–,–,–
CC(C)(F)[C@H]1OC[C@]2(c3cc(NC(=O)c4ccc(C#N)cn4)ccc3F)N=C(N)[C@](C)(C#N)C[C@H]12 [21a],8.62,–,–,–,–,–
CC1(C#N)CC2C(CF)OCC2(c2cc(NC(=O)c3ccc(C#N)cn3)ccc2F)N=C1N (stereo not shown) [24a],–,–,–,2.14,–,2.88
Cc1cc(C#N)cnc1C(=O)Nc1ccc(F)c(C23COC(C(C)(F)F)C2CC(C)(C#N)C(N)=N3)c1 (stereo not shown) [compound 37],–,–,–,1.91,–,1.78
CC1(C#N)CC2C(C(C)(F)F)OCC2(c2cc(NC(=O)c3cnc(OC(F)F)cn3)ccc2F)N=C1N (stereo not shown) [compound 38],–,–,–,0.955,–,3.8
